Measured values published in patent publication US20210346391A1, “TREATMENT OF PRURITUS WITH P2X3 MODULATORS” (Bellus Health Cough Inc., priority 2018, published 2021).

Key:
[1] = test system: chloroquine (CQ) induced itch behavior; assay: Chloroquine-induced mouse model of acute itch and its potentiation by α,β-Me-ATP; format: in vivo
[2] = test system: chronic itch behavior (spontaneous scratches); assay: AEW (acetone-ether-water) dry skin model of chronic itch; format: in vivo, mouse; conditions: Day 10
[3] = test system: chronic itch behavior (spontaneous scratches); assay: MC903 atopic dermatitis model of chronic itch; format: in vivo, mouse; conditions: Day 8
Description: MC903 (calcipotriol, Tocris) was dissolved in 100% ethanol and topically applied on C57B16/J male mouse ears (4 nmol in 40 μl, 10 μl per side of ear) or nape (4 nmol in 40 μl). This regimen was administered twice daily for 7 days. Scratching behaviors were recorded 16 h after the last MC903 treatment. […] Mice were placed individually into behavior chambers and video recorded at a side angle for 60-90 minutes. A scratch was defined as a lifting of the hind limb towards the nape or head to scratch and then a replacing of the limb back to the floor, regardless of how many scratching strokes take place between lifting and lowering of the hind limb. Experimenters for injections and observers of scratching behavior were blinded to the injection compounds and groups of mice, respectively.

`CCN(CC)CCCC(C)Nc1ccnc2cc(Cl)ccc12` (stereo not shown) [CQ, chloroquine, reference compound] was tested, and the “number of scratches (mean ± s.e.m.)” value ([1]; mouse, in vivo) was 17.2±2.4 scratches.
`CNC(=O)c1cc(F)c(-c2nc3cc(C)ccn3c2C[C@H]2CN(C(=O)OC)CCO2)c(F)c1` [Compound 1] was tested, and the “time course of spontaneous scratches in 10-min intervals” value ([2]; 2, 10, 50 mg/kg i.p., FIG. 6) was “significant effect on spontaneous scratches at 20 min, 40 min, 50 min, and 60 min”, the “spontaneous scratches in 60 min compared to vehicle” value ([2]; 2, 10, or 50 mg/kg i.p., statistically significant for all doses (p<0.001), FIG. 5) was “decreased spontaneous scratches” and the “time course of spontaneous scratches in 10-min intervals” value ([3]; 2, 10, 50 mg/kg i.p., FIG. 8) was “significant effect on spontaneous scratches at 10 min, 20 min, 30 min, 40 min, 50 min, and 60 min time points”. The “spontaneous scratches in 60 min compared to vehicle” value ([3]; 2, 10, or 50 mg/kg i.p., statistically significant for all three doses, FIG. 7) was “dose-dependently decreased spontaneous scratches”, the “number of scratches in 15 minutes (mean ± s.e.m.)” value ([1]; 20 μg CQ + 50 μM α,β-Me-ATP, 10 mg/kg i.p., vehicle 46.6±2.9, p=0.0084) was 28.3±4.6 scratches and the “decrease of the potentiation of CQ-induced itch by ATP” value ([1]; 20 μg CQ + 50 μM α,β-Me-ATP, 10 mg/kg i.p., vs vehicle) was 40%. The “scratching behavior compared to vehicle” value ([1]; 20 μg CQ + 50 μM α,β-Me-ATP, 2, 10, or 50 mg/kg i.p. 30 min before, FIG. 2) was “decreased scratching behavior”, the “number of scratches in 15 minutes (mean ± s.e.m.)” value ([1]; 20 μg CQ + 100 μM α,β-Me-ATP, 10 mg/kg i.p., vehicle 67±6.3, p=0.0074, FIG. 3) was 44.8±3.8 scratches and the “decrease of the potentiation of CQ-induced itch by higher concentrations of ATP” value ([1]; 20 μg CQ + 100 μM α,β-Me-ATP, 10 mg/kg i.p., vs vehicle) was 33%. For the same molecule, the “decrease of itch induced by high dose CQ” value ([1]; 200 μg CQ, 10 mg/kg i.p., vs vehicle) was 21% and the “number of scratches in 30 minutes (mean ± s.e.m.)” value ([1]; high dose CQ 200 μg, 10 mg/kg i.p., vehicle 280±16.1, p=0.011, FIG. 4) was 221.8±12.9 scratches.
With `Nc1ncnc2c1ncn2C1OC(COP(=O)(O)CP(=O)(O)OP(=O)(O)O)C(O)C1O` (stereo not drawn) [α,β-Me-ATP, α,β-methylene-adenosine 5′-triphosphate, reference compound] the “number of scratches (mean ± s.e.m.)” value ([1]; co-injected i.d. low dose CQ (20 μg) + 10 μM α,β-Me-ATP, p=0.0013 vs CQ) was 28.2±2.2 scratches, the “scratching behavior compared to CQ only or CQ+10 μM α,β-Me-ATP” value ([1]; co-injected i.d. low dose CQ (20 μg) + 50 μM α,β-Me-ATP, p<0.001 vs CQ, FIG. 1) was “further increased scratching behaviors” and the “number of scratches (mean ± s.e.m.)” value ([1]; mice injected i.d. solely with 10 μM α,β-Me-ATP) was 2.4±0.9 scratches. For the same molecule, the “number of scratches (mean ± s.e.m.)” value ([1]; mice injected i.d. solely with 50 μM α,β-Me-ATP) was 5.6±1.8 scratches.
